Among the data in ChEMBL document CHEMBL1926600, “Design, synthesis and biological evaluation of cycloalkyl arylpyrimidines (CAPYs) as HIV-1 NNRTIs” (Bioorg Med Chem, 2011) are EC50, CC50 and selectivity ratio values, retold here.

Data set [1] concerns Human immunodeficiency virus 1. Description: Antiviral activity against wild type HIV1 3B infected in human MT4 cells assessed as reduction in virus-induced cytopathogenicity after 5 days by MTT assay. In kind it is functional, organism-based. Conditions: Human immunodeficiency virus 1, 3B, MT4, 120 h. Background: Protection from cytopathic effect is a common read-out in antiviral testing.

Data set [2] relates to Human immunodeficiency virus 1. Description: Antiviral activity against HIV1 harboring reverse transcriptase K103N/Y181C mutant infected in human MT4 cells assessed as reduction in virus-induced cytopathogenicity after 5 days by MTT assay. Conditions: Human immunodeficiency virus 1, MT4, 120 h. In kind it is functional, organism-based.
Data set [3] can be described thus: Cytotoxicity against human MT4 cells measured by MTT assay. In kind it is cell-based.
The nature of data set [4]: Selectivity index, ratio of CC50 for human MT4 cells to EC50 for HIV1 3B. In kind it is toxicity, cell-based. Conditions: read-out: Ratio CC50/EC50.
For data set [5], the system named is Human immunodeficiency virus 2. The data set can be described thus: Antiviral activity against HIV2 ROD infected in human MT4 cells assessed as reduction in virus-induced cytopathogenicity after 5 days by MTT assay. In kind it is functional, organism-based. To be noted: Human immunodeficiency virus 2, ISOLATE ROD, MT4, 120 h.

Regarding `CC(C)Nc1cccnc1N1CCN(C(=O)c2cc3cc(NS(C)(=O)=O)ccc3[nH]2)CC1` [DELAVIRDINE], the EC50 in data set [1] is 16 nM; in data set [2], more than 4390 nM. Moreover, the CC50 in data set [3] was more than 4390 nM. Moreover, the selectivity ratio in data set [4] was more than 274.
On to `Cc1cc(NC2CCCC2)nc(Nc2ccc(C#N)cc2)n1`, for which the 50% effective concentration (EC50) in data set [1] and in data set [5] was more than 310 nM in each case. In addition, in data set [3], the CC50 came out at 310 nM. Further, the selectivity ratio in data set [4] was less than 1.
As to `Cc1cc(NC2CCCCC2)nc(Nc2ccc(C#N)cc2)n1`, the EC50 in data set [1] and in data set [5] was more than 340 nM throughout. The CC50 in data set [3] amounted to 340 nM. Further, the selectivity ratio in data set [4] was less than 1.
In the case of `Cc1cnc(Nc2ccc(C#N)cc2)nc1NC1CCCCC1`, the EC50 in data set [1] and in data set [5] was more than 1300 nM each time. Besides, the midpoint of cytotoxicity in data set [3], the CC50, lay at 1300 nM. Besides, the selectivity ratio in data set [4] is less than 1.
For the compound `N#Cc1ccc(Nc2nccc(OC3CCCC3)n2)cc1`, the half-maximal effective concentration (EC50) in data set [1] was 6710 nM; in data set [2] it was more than 340000 nM; in data set [5], 31300 nM. Moreover, in data set [3], the cytotoxic concentration (CC50) is not below 340000 nM. Besides, the selectivity ratio in data set [4] is not below 51.
As for `N#Cc1ccc(Nc2nccc(SC3CCCCC3)n2)cc1`, the EC50 in data set [1] was 55 nM; in data set [2], more than 403000 nM; in data set [5] it was more than 403000 nM. This compound had a CC50 in data set [3] of more than 403000 nM. Further, the selectivity ratio in data set [4] is more than 7290.
Consider `N#Cc1ccc(Nc2nccc(OC3CCCCC3)n2)cc1`, for which the figures for the EC50 in data set [1], in data set [2] and in data set [5] were 1160 nM, more than 322000 nM and more than 322000 nM, respectively. This compound registered a cytotoxic concentration (CC50) in data set [3] of 322000 nM. Moreover, in data set [4], the selectivity ratio was found to be 276.
Turning to `Cc1ccnc2c1NC(=O)c1cccnc1N2C1CC1` [NEVIRAPINE], the EC50 in data set [2] was 3490 nM; in data set [5], more than 15000 nM. In data set [3], the CC50 was more than 15000 nM.
Consider `N#Cc1ccc(Nc2nccc(NC3CCCC3)n2)cc1`, for which the EC50 in data set [1] was 1580 nM; in data set [2], more than 9130 nM; in data set [5] it was more than 9130 nM. In data set [3], this compound came in with a CC50 of 9130 nM. The selectivity ratio in data set [4] amounted to 6.
Consider `Cc1cc(OC2CCCC2)nc(Nc2ccc(C#N)cc2)n1`, for which the EC50 in data set [1] and in data set [5] was more than 1050 nM each time. Moreover, half-maximal cytotoxicity in data set [3] (CC50) was put at 1050 nM. The selectivity ratio in data set [4] was less than 1.
`N#Cc1ccc(Nc2nccc(NC3CC3)n2)cc1`: the EC50 in data set [1] and in data set [5] was more than 1190 nM each time. This compound also returned a CC50 in data set [3] of 1190 nM. Also, the selectivity ratio in data set [4] is less than 1.
Take `N#Cc1ccc(Nc2nccc(NC3CCCCC3)n2)cc1`: the EC50 is 960 nM in data set [1], more than 7330 nM in data set [2] and more than 7330 nM in data set [5]. This compound gave a half-maximal cytotoxic concentration (CC50) in data set [3] of 7330 nM. In data set [4], the selectivity ratio worked out at 8.
Regarding `Cc1cc(OC2CCCCC2)nc(Nc2ccc(C#N)cc2)n1`, the EC50 in data set [1] and in data set [5] was more than 320 nM each time. The compound further gave a cytotoxic concentration (CC50) in data set [3] of 320 nM. In data set [4], the selectivity ratio is less than 1.
For the compound `Cc1cnc(Nc2ccc(C#N)cc2)nc1OC1CCCC1`, the EC50 in data set [1] and in data set [5] was more than 9990 nM throughout. The compound also yielded a CC50 in data set [3] of 9990 nM. In data set [4], the selectivity ratio was less than 1.
Consider `Cc1cnc(Nc2ccc(C#N)cc2)nc1SC1CCCCC1`, for which the EC50 in data set [1] is 430 nM; in data set [2], more than 33400 nM; in data set [5], more than 33400 nM. The compound also had a CC50 in data set [3] of 33400 nM. Besides, in data set [4], the selectivity ratio came out at 79.
On to `O=C1Nc2ccc(Cl)cc2[C@@](C#CC2CC2)(C(F)(F)F)O1` [EFAVIRENZ], for which the EC50 stood at 5.4 nM in data set [1] and 510 nM in data set [2]. For the same compound, the half-maximal cytotoxic concentration (CC50) in data set [3] is more than 6340 nM. Moreover, the selectivity ratio in data set [4] was more than 1150.
Take `Cc1cc(SC2CCCCC2)nc(Nc2ccc(C#N)cc2)n1`: the EC50 was 96 nM in data set [1], more than 192000 nM in data set [2] and more than 192000 nM in data set [5]. The CC50 in data set [3] is not below 192000 nM. In addition, the selectivity ratio in data set [4] was not below 2010.
Turning to `Cc1cnc(Nc2ccc(C#N)cc2)nc1OC1CCCCC1`, the EC50 was 6490 nM in data set [1], more than 31200 nM in data set [2] and more than 31200 nM in data set [5]. The compound also had a CC50 in data set [3] of 31200 nM. For the same compound, the selectivity ratio in data set [4] came out at 5.
Consider `Cc1cnc(Nc2ccc(C#N)cc2)nc1NC1CCCC1`, for which the EC50 in data set [1] and in data set [5] was more than 170 nM throughout. Besides, the midpoint of cytotoxicity in data set [3], the CC50, lay at 170 nM. Also, the selectivity ratio in data set [4] is less than 1.
Consider `Cc1cc(C#N)cc(C)c1Oc1nc(Nc2ccc(C#N)cc2)nc(N)c1Br` [ETRAVIRINE], for which the EC50 in data set [1] is 2.2 nM; in data set [2], 34 nM; in data set [5], more than 27800 nM. In data set [3], the CC50 was determined as 27800 nM. Besides, the selectivity ratio in data set [4] is 12900.
For `Cc1cn([C@H]2C[C@H](N=[N+]=[N-])[C@@H](CO)O2)c(=O)[nH]c1=O` [ZIDOVUDINE] the same measures were 7.5 nM, 13 nM, 7.5 nM, not below 46400 nM and not below 6360.
Regarding `Cc1cc(NC2CC2)nc(Nc2ccc(C#N)cc2)n1`, the EC50 in data set [1] and in data set [5] was more than 88 nM in each case. In data set [3], this compound returned a CC50 of 88 nM. Besides, in data set [4], the selectivity ratio was less than 1.
With `Cc1cnc(Nc2ccc(C#N)cc2)nc1NC1CC1`, the EC50 in data set [1] and in data set [5] was more than 360 nM throughout. This compound also displayed a CC50 in data set [3] of 360 nM. Moreover, the selectivity ratio in data set [4] is less than 1.

By EC50 is commonly meant the concentration giving half of the maximal effect. A word on the CC50: it is the concentration that lowers cell viability or growth by half. Read a high CC50 as better tolerance by the cells.
